Measured values taken from ChEMBL document CHEMBL4406889, “The identification and pharmacological evaluation of potent, selective and orally available ACC1 inhibitor” (Bioorg Med Chem Lett, 2019).

Columns and labels:
in vitro [1] = conditions: PAMPA, pH 7.4
Description: Permeability of compound at pH 7.4 by PAMPA assay

in vitro [2] = conditions: human, liver microsomes
Description: Metabolic stability in human Liver microsomes

in vivo [3] = conditions: ICR, mouse, po, 1 mg/kg
in vivo [4] = conditions: ICR, mouse, iv, 0.1 mg/kg
Description: Half life in ICR mouse at 0.1 mg/kg, iv

in vitro [5] = conditions: PAMPA, pH 5
Description: Permeability of compound at pH 5 by PAMPA assay

in vitro [6] = conditions: mouse, liver microsomes
Description: Metabolic stability in mouse Liver microsomes

Acetyl-CoA carboxylase 2 [7] = biological target: Acetyl-CoA carboxylase 2 (Mus musculus, UniProt E9Q4Z2); assay: biochemical
Chain of Acetyl-CoA carboxylase 2 (Mus musculus, UniProt E9Q4Z2) (E9Q4Z2 whole entry): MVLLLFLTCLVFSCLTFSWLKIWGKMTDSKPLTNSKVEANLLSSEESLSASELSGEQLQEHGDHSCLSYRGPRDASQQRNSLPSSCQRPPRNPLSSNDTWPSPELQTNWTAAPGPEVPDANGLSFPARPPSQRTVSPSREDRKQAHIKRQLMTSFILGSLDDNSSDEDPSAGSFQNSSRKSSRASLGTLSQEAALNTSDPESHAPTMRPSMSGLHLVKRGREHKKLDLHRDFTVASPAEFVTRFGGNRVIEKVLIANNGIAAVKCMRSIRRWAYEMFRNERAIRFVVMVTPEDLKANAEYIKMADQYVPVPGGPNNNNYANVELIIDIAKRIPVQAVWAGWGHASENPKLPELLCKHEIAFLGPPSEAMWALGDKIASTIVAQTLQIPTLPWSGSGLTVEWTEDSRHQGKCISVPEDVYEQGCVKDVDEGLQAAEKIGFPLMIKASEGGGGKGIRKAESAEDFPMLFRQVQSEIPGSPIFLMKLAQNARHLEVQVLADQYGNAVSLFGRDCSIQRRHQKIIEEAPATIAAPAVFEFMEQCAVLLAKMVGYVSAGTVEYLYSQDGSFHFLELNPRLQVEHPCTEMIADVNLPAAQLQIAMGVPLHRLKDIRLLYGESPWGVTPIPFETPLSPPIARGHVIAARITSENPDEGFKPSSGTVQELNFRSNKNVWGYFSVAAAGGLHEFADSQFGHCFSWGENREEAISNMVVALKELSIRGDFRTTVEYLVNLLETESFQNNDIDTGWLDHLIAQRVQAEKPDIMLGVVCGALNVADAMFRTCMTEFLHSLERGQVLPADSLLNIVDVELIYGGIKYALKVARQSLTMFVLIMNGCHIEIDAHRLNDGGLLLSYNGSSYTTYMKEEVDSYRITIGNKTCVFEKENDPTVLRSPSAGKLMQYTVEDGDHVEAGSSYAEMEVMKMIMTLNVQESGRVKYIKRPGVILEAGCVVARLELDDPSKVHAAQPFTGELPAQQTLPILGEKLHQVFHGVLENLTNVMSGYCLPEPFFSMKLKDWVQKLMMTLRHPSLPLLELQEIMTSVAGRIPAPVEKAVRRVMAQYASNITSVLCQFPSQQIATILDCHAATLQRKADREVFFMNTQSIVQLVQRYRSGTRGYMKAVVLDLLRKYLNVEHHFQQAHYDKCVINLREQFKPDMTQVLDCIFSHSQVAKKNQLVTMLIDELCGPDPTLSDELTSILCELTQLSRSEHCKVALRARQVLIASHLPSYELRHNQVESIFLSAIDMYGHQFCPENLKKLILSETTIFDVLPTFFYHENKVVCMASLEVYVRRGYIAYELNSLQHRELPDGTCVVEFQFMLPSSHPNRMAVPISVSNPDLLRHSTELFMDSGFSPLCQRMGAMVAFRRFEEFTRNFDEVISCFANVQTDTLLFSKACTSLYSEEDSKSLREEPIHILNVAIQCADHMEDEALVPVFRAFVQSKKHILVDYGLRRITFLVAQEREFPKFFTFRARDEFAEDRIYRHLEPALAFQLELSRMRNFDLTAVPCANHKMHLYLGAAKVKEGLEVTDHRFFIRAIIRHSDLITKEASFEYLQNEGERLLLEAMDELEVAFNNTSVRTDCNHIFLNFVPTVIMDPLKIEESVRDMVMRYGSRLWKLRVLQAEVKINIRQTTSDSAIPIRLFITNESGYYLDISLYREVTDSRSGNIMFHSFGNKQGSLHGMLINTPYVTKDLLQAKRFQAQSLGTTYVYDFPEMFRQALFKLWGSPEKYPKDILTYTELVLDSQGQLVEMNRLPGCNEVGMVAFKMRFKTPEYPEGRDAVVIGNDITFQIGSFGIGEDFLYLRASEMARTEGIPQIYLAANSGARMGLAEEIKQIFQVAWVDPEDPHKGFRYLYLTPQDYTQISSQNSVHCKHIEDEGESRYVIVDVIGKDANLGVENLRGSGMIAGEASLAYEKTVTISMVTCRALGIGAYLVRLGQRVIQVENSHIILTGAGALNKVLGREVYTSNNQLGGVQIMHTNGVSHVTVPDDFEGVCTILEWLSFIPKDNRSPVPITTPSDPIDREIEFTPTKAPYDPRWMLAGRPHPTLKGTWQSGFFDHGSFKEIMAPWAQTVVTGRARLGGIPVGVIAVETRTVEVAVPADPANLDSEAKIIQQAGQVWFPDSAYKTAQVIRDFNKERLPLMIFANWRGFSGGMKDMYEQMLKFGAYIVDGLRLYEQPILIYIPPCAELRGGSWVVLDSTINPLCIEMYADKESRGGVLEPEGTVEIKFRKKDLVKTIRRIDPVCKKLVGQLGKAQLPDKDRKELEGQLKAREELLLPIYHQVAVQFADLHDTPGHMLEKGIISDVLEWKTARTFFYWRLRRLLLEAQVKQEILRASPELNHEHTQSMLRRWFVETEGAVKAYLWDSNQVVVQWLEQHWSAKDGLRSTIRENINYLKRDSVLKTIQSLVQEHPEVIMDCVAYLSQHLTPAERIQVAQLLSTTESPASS
Description: Inhibition of mouse His-tagged ACC2 expressed in baculovirus infected SF9 cells using acetyl-CoA as substrate incubated for 60 mins followed by substrate addition and measured after 30 mins Rapidfire-Mass spectrometry

in vivo [8] = conditions: ICR, mouse, iv, 0.1 mg/kg; remark: listed apart in the source
in vivo [9] = conditions: ICR, mouse, po, 1 mg/kg; remark: listed apart in the source
Description: MRT in ICR mouse at 1 mg/kg, po

in vivo [10] = conditions: ICR, mouse, po, 1 mg/kg; remark: listed apart in the source
Acetyl-CoA carboxylase 1 [11] = biological target: Acetyl-CoA carboxylase 1 (Mus musculus, UniProt Q5SWU9); assay: biochemical
Description: Inhibition of mouse His-tagged ACC1 expressed in baculovirus infected SF9 cells using acetyl-CoA as substrate incubated for 60 mins followed by substrate addition and measured after 30 mins Rapidfire-Mass spectrometry

in vivo [12] = conditions: ICR, mouse, iv, 0.1 mg/kg; remark: listed apart in the source
Description: Volume of distribution at steady state in ICR mouse at 0.1 mg/kg, iv

in vivo [13] = conditions: ICR, mouse, iv, 0.1 mg/kg; remark: listed apart in the source
Description: Clearance in ICR mouse at 0.1 mg/kg, iv

Acetyl-CoA carboxylase 2 [14] = biological target: Acetyl-CoA carboxylase 2 (Homo sapiens, UniProt O00763); assay: biochemical
Chain of Acetyl-CoA carboxylase 2 (Homo sapiens, UniProt O00763) (O00763 whole entry): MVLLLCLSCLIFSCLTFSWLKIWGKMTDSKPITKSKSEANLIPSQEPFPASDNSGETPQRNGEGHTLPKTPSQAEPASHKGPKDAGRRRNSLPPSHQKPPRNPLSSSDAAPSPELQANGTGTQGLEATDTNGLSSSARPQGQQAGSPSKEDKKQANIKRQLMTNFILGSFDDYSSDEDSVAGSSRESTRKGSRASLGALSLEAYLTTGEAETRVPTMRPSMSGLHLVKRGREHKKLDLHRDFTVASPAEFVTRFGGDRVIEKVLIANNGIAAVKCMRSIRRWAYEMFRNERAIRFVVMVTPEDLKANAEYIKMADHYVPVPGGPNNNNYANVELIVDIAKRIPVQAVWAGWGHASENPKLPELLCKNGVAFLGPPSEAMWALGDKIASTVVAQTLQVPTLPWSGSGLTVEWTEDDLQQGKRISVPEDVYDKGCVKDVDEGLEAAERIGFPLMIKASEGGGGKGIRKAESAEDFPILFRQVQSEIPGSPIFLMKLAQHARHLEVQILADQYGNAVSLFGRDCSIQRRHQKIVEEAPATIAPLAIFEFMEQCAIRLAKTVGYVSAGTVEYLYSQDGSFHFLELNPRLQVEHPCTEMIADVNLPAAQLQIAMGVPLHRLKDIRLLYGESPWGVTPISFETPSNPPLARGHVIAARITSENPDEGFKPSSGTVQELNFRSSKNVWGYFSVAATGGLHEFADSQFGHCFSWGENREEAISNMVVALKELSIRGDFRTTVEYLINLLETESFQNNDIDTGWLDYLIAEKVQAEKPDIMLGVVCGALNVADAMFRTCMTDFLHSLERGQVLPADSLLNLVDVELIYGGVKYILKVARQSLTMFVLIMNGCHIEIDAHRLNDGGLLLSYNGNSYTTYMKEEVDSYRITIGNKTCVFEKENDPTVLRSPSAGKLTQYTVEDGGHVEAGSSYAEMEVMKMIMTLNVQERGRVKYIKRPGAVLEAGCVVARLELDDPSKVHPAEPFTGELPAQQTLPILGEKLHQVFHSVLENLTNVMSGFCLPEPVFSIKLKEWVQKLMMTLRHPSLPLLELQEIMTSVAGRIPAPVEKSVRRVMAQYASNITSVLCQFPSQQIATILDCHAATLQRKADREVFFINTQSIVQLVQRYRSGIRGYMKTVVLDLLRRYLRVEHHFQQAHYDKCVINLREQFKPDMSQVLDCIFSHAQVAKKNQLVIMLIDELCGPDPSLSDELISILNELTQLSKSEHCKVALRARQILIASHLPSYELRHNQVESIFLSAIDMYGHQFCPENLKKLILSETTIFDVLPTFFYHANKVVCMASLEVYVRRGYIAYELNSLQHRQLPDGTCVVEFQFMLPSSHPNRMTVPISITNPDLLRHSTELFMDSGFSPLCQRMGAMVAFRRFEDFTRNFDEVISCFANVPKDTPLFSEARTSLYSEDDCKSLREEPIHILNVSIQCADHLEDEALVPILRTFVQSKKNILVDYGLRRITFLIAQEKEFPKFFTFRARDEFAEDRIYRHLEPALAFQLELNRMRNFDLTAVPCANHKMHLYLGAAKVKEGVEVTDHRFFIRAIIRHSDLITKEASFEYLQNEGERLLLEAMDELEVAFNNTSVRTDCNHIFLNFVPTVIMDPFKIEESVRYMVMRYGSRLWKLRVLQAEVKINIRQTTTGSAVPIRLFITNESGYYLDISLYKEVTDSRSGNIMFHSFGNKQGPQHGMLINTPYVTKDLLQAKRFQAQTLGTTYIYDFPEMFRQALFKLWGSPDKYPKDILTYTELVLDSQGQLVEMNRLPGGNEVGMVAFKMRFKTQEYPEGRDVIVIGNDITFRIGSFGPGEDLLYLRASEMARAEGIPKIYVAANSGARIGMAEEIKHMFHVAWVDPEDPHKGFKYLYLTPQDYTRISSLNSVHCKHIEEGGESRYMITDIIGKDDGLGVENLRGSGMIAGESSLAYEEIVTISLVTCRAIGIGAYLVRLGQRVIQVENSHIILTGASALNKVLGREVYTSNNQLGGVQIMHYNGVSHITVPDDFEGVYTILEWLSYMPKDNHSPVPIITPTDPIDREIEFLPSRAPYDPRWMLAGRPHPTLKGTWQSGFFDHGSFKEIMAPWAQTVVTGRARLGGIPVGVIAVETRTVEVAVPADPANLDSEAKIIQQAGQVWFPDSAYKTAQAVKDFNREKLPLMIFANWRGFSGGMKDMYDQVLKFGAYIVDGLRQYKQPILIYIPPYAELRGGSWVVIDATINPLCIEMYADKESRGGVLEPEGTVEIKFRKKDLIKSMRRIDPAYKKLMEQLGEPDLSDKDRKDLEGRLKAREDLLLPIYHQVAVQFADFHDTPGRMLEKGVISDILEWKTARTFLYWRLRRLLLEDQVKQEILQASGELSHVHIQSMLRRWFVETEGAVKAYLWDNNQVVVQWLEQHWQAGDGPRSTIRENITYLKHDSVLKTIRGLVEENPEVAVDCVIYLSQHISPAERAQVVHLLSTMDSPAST
Description: Inhibition of recombinant human His-tagged ACC2 expressed in baculovirus infected SF9 cells using acetyl-CoA as substrate incubated for 60 mins followed by substrate addition and measured after 30 mins Rapidfire-Mass spectrometry

Acetyl-CoA carboxylase 1 [15] = biological target: Acetyl-CoA carboxylase 1 (Homo sapiens, UniProt Q13085); assay: biochemical
Description: Inhibition of recombinant human His-tagged ACC1 expressed in baculovirus infected SF9 cells using acetyl-CoA as substrate incubated for 60 mins followed by substrate addition and measured after 30 mins Rapidfire-Mass spectrometry

| SMILES | Papp (in vitro [1]) | microsomal CLint (in vitro [2]) | bioavailability (in vivo [3]) | half-life (in vivo [4]) | Papp (in vitro [5]) | microsomal CLint (in vitro [6]) | IC50 (Acetyl-CoA carboxylase 2 [7]) | Cmax (in vivo [8]) | MRT (in vivo [9]) | AUC(0-t) at 8 h (in vivo [10]) | IC50 (Acetyl-CoA carboxylase 1 [11]) | Vd (in vivo [12]) | clearance (in vivo [13]) | IC50 (Acetyl-CoA carboxylase 2 [14]) | IC50 (Acetyl-CoA carboxylase 1 [15]) |
| --- | --- | --- | --- | --- | --- | --- | --- | --- | --- | --- | --- | --- | --- | --- | --- |
| CC(=O)NC(C)c1ccc2nc(-c3ccc(Oc4cccc(OCC5CC5)c4)nc3)oc2c1 (configuration not stated) | 33.7 ×10⁻⁶ cm/s | 27 µL/min/mg | 60.6% | > 480 min | 27.2 ×10⁻⁶ cm/s | 65 µL/min/mg | 36 nM | 1110 ng/mL | 3.69 h | 6880 ng·h/mL | 0.18 nM | 0.269 L/kg | 1.47 mL/min/kg |  |  |
| CC(NC(=O)N(C)C)c1ccc2nc(-c3ccc(Oc4cccc(OCC5CC5)c4)nc3)oc2c1 (configuration not stated) |  |  |  |  |  |  |  |  |  |  |  |  |  | 80 nM | 2.1 nM |
| CNC(=O)NC(C)c1ccc2nc(-c3ccc(Oc4cccc(OCC5CC5)c4)nc3)oc2c1 (configuration not stated) |  |  |  |  |  |  |  |  |  |  |  |  |  | 77 nM | 3.8 nM |
